{"source": "patent US20230077811A1", "about": "“ACTIVATION OF NEUROPEPTIDE RECEPTORS ON PLASMACYTOID DENDRITIC CELLS TO TREAT OR PREVENT OCULAR DISEASES ASSOCIATED WITH NEOVASCULARIZATION AND INFLAMMATION” (Tufts Medical Center, Inc., priority 2020, published 2023)", "key": {"[1]": {"tested_on": "CNV in C57BL/6 to BALB/c corneal transplants", "test": "High-risk corneal transplant model (C57BL/6 to BALB/c), CNV quantified by CD31 staining", "type": "in vivo, BALB/c mice", "conditions": "subconjunctival THIQ (10 ug/mL) every other day for 14 days, versus saline"}, "murine pDCs": {"tested_on": "murine pDCs", "test": "Flow cytometry of murine pDCs incubated with THIQ for angiostatic proteins", "type": "cell-based", "conditions": "THIQ 10 ug/mL"}, "human corneal pDCs": {"tested_on": "human corneal pDCs", "test": "Flow cytometry of human corneal pDCs incubated with THIQ for angiostatic proteins", "type": "cell-based", "conditions": "THIQ 10 ug/mL", "description": "Phenotypically murine and human pDCs express divergent sets of surface markers as reviewed by Rogers et al. (Rogers et al., Am. J. Transplant. 13:1125-1133, 2013). Human pDCs express the pan leukocyte marker CD45, BDCA2 (CD303), and BDCA4 (neuropilin-1). To examine the possibility that murine but not human pDCs express angiostatic molecules, human corneal eye bank research samples for ES, PF-4, TSP-1 and TIMP3 were examined. Human corneal tissues were obtained and processed by […] Eyebank (Ann Arbor, Mich., USA) according to a standardized eye banking protocols, and procedures. […] The exclusion criterion was tissue from donors with corneal neovascularization, or a history of diabetes, cancer, or keratitis. […] Pharmacol. Toxicol. 101:416-420, 2007; Sebhat et al., J. Med. Chem. 45:4589-4593, 2002) was utilized. The ability of THIQ (10 ug/mL) to impact murine and human pDCs was tested."}, "suture induced CNV": {"tested_on": "suture induced CNV", "test": "Suture induced model of corneal neovascularization (CNV), CD31 whole mount quantification", "type": "in vivo, C57BL/6 mice"}, "[2]": {"tested_on": "phospho-PKCδ/θ (Ser643/676)", "test": "Immunoblot of PKC isoform phosphorylation in FACS-sorted pDCs treated with THIQ", "type": "cell-based, murine", "protocol": "Previous studies have shown the MC4 receptor to couple to all three major classes of G proteins, Gs, Gi/o, and Gq depending on cell type (Tao, Endocr. Rev. 31:506-543, 2010). To test pDC MC4 signaling, FACS-sorted pDCs were incubated with THIQ (10 ug/mL) for 5, 15, or 30 minutes. Protein kinase C (PKC) isoform phosphorylation was examined by phospho-PKC specific antibodies and immunoblotting. Specifically, Splenic pDCs were FACs sorted as previously described. Five hundred thousand pDCs were used per condition and lysed directly with chilled 1× radioimmunoprecipitation assay (RIPA) buffer or 1× Laemmli Buffer on ice. Samples were diluted in NuPAGE sample loading buffer (ThermoFisher) and 1× NuPAGE Sample Reducing Agent (ThermoFisher) and heated to 70° C. for 10 minutes. Protein lysates were resolved on a 10% Bis-Tris SDS gel (ThermoFisher) and transferred to a nitrocellulose membrane (ThermoFisher). Membranes were blocked with odyssey blocking buffer (Licor) for one hour and incubated with protein specific primary antibodies (1:100 or 1:200) overnight at 4° C. Membranes were washed with blocking buffer and secondary antibodies were diluted (1:5000 or 1:15000) and incubated with membranes for 60 minutes at room temperature. Membranes were imaged using an Odyssey® CLx Imaging System (Licor). Image analysis was done using Image Studio software. Protein sampling kits for PKC, and NF-κB signaling antibodies were purchased from Cell signaling (Phospho-PKC Antibody Sampler Kit #9921 and NF-κB Pathway Sampler Kit #9936)."}, "NF-kB": {"tested_on": "NF-kB", "test": "Immunofluorescence of NF-kB (RelB, c-Rel) nuclear localization in sorted pDCs treated with THIQ", "type": "cell-based, murine", "conditions": "THIQ 10 ug/mL, 24 hours, compared to control pDCs"}, "splenic pDCs": {"tested_on": "splenic pDCs", "test": "Flow cytometry of splenic pDCs for ES and TSP-1 after 24 hours with neuropeptide receptor agonists", "type": "cell-based, C57BL/6 mice"}}, "note": "Like-named read-outs stand apart in the source and are kept apart here.", "data": [{"compound": "O=C(N[C@H](Cc1ccc(Cl)cc1)C(=O)N1CCC(Cn2cncn2)(C2CCCCC2)CC1)[C@H]1Cc2ccccc2CN1", "note": "[THIQ, (3R)—N-[(2R)-3-(4-chlorophenyl)-1-[4-cyclohexyl-4-(1,2,4-triazol-1-ylmethyl)piperidin-1-yl]-1-oxopropan-2-yl]-1,2,3,4-tetrahydroisoquinoline-3-carboxamide]", "values": [{"measurement": "CNV in corneal transplants", "setting": "[1]", "result": "reduced"}, {"measurement": "ES mean fluorescence intensity (MFI)", "setting": "murine pDCs", "result": "increased"}, {"measurement": "PF4 mean fluorescence intensity (MFI)", "setting": "murine pDCs", "result": "increased"}, {"measurement": "TIMP3 mean fluorescence intensity (MFI)", "setting": "murine pDCs", "result": "increased"}, {"measurement": "TSP-1 mean fluorescence intensity (MFI)", "setting": "murine pDCs", "result": "increased"}, {"measurement": "ES mean fluorescence intensity (MFI)", "setting": "human corneal pDCs", "result": "increased"}, {"measurement": "PF4 mean fluorescence intensity (MFI)", "setting": "human corneal pDCs", "result": "increased"}, {"measurement": "TIMP3 mean fluorescence intensity (MFI)", "setting": "human corneal pDCs", "result": "increased"}, {"measurement": "TSP-1 mean fluorescence intensity (MFI)", "setting": "human corneal pDCs", "result": "increased"}, {"measurement": "Reduction of suture induced CNV", "setting": "suture induced CNV; subconjunctival injection of THIQ (10 ug/mL) every other day for 14 days, versus saline", "result": 46, "unit": "%"}, {"measurement": "CNV, MC4 siRNA with THIQ versus control siRNA", "setting": "suture induced CNV; sutured C57BL/6, injected every other day for two weeks, THIQ together with siRNA against MC4", "result": "No statistical difference"}, {"measurement": "Phosphorylation of additional PKC isoforms", "setting": "[2]; THIQ 10 ug/mL, 5, 15 or 30 minutes", "result": "not observed"}, {"measurement": "PKCδ/θ (Ser643/676) phosphorylation", "setting": "[2]; THIQ 10 ug/mL, 15 minutes, normalized to actin", "result": "decreased"}, {"measurement": "PKCδ/θ (Ser643/676) phosphorylation", "setting": "[2]; THIQ 10 ug/mL, 30 minutes, normalized to actin", "result": "decreased"}, {"measurement": "phospho-PKCδ/θ (Ser643/676) phosphorylation", "setting": "[2]; THIQ 10 ug/mL, five minutes, normalized to actin", "result": "Increased"}, {"measurement": "RelB nuclear localization", "setting": "NF-kB", "result": "Increased"}, {"measurement": "c-Rel nuclear localization", "setting": "NF-kB", "result": "not"}]}, {"compound": "Dynorphin A", "values": [{"measurement": "pDC ES protein expression", "setting": "splenic pDCs", "result": "increased"}, {"measurement": "pDC TSP-1 protein expression", "setting": "splenic pDCs", "result": "increased"}]}, {"compound": "COC(=O)[C@H](CCCN=C(N)N)NC(=O)CCCc1c(-c2ccccc2)[nH]c2c(F)cc(F)cc12", "note": "[L-803,087]", "values": [{"measurement": "pDC ES protein expression", "setting": "splenic pDCs; 24 hours, compared to baseline", "result": "mixed impact"}, {"measurement": "pDC TSP-1 protein expression", "setting": "splenic pDCs; 24 hours, compared to baseline", "result": "mixed impact"}]}]}
